Values of other authors, collected in patent EP2727592A1 (Kücükgüzel, Sükriye Güniz, priority 2012, dated 2014).

Legend:
[1] = in vivo
[2] = not given; remark: listed apart in the source

For `CC(=O)Nc1ccc(O)cc1` [PAR, 4-hydroxyacetanilide], the “time to reach the highest amount of plasma concentration” value (customary dose orally) is given as 90 min, the Elimination half life (in vivo) is given as 3.3 h and the Oral bioavailability (oral) is given as 63 - 89%. For the same molecule, the eliminated without transformation [1] was 5%, the “turns into N-acetyl-p-benzoquinonimine (NAPQI) with oxidation” value [1] was 5% and the “turns into glucuronide and sulphate conjugate” value [1] was 90%. For the same molecule, the “dose leading to nausea, vomiting, stomach ache, then liver failure and acute liver necrosis” value ([2]; adults) was “more than 10 g”, the paediatric toxic dose ([2]; children) was 200 mg/kg and the “dose at which the fatality risk shall increase” value ([2]; taken in one go) was “over 20 g”.
